In ChEMBL document CHEMBL2062409, “Conformationally-restricted cyclic sulfones as potent and selective mTOR kinase inhibitors” (Bioorg Med Chem Lett, 2012):

How the values were obtained:
[1] = molecular target: T1, Serine/threonine-protein kinase mTOR (Homo sapiens, UniProt P42345); test: Inhibition of mTOR
[2] = Clearance in human liver microsomes assessed per mg of protein; type: ADME, Microsome; conditions: read-out: CLH
[3] = Clearance in human hepatocytes assessed per million cells; type: ADME, cell-based, Hepatocyte; conditions: read-out: CLH
[4] = molecular target: T2, Phosphatidylinositol 4,5-bisphosphate 3-kinase catalytic subunit alpha isoform (Homo sapiens, UniProt P42336); test: Inhibition of PI3Kalpha
[5] = molecular target: T1, Serine/threonine-protein kinase mTOR; test: Inhibition of mTOR-mediated AKT phosphorylation at Ser473 by cell based assay
[6] = molecular target: T2, Phosphatidylinositol 4,5-bisphosphate 3-kinase catalytic subunit alpha isoform; test: Inhibition of PI3Kalpha at 100 nM
Homo sapiens = species on record: Homo sapiens; test: Selectivity ratio of Ki for PI3Kalpha to Ki for mTOR
[7] = Half life in rat; type: ADME, organism-based; conditions: in vivo
CYP2D6 = CYP2D6 (Homo sapiens, UniProt P10635); test: Inhibition of CYP2D6 at 3 uM; type: ADME
CYP1A2 = molecular target: T3, CYP1A2 (Homo sapiens, UniProt P05177); test: Inhibition of CYP1A2 at 3 uM; type: ADME
T3 sequence (P05177 whole entry): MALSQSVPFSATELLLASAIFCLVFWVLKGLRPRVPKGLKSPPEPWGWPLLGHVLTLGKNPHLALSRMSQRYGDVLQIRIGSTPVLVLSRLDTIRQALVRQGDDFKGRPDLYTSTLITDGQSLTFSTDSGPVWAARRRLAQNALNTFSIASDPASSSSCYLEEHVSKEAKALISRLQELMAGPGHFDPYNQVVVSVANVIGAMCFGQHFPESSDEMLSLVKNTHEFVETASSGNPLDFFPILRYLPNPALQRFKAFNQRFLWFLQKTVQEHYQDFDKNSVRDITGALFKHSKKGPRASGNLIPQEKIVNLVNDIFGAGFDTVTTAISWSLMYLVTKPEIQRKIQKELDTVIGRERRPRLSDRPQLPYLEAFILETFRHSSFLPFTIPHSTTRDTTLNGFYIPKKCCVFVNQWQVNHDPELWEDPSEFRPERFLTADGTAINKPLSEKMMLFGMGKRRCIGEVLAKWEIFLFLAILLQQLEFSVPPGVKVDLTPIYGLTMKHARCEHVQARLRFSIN

CYP3A4 = CYP3A4 (Homo sapiens, UniProt P08684); test: Inhibition of CYP3A4 at 3 uM; type: ADME
CYP2C9 = CYP2C9 (Homo sapiens, UniProt P11712); test: Inhibition of CYP2C9 at 3 uM; type: ADME
[8] = Clearance in rat; type: ADME, organism-based; conditions: in vivo
[9] = Drug excretion in rat; type: ADME, organism-based; conditions: in vivo, read-out: Drug excretion
Salmonella typhimurium = test: Genotoxicity in Salmonella typhimurium; type: toxicity, organism-based; conditions: salmonella enterica subsp. enterica serovar typhimurium
[10] = Oral bioavailability in rat; type: ADME, organism-based; conditions: in vivo
[11] = molecular target: T1, Serine/threonine-protein kinase mTOR; test: Inhibition of mTOR-mediated ribosomal protein S6 kinase phosphorylation by cell based assay

T2 sequence (P42336 whole entry, canonical isoform): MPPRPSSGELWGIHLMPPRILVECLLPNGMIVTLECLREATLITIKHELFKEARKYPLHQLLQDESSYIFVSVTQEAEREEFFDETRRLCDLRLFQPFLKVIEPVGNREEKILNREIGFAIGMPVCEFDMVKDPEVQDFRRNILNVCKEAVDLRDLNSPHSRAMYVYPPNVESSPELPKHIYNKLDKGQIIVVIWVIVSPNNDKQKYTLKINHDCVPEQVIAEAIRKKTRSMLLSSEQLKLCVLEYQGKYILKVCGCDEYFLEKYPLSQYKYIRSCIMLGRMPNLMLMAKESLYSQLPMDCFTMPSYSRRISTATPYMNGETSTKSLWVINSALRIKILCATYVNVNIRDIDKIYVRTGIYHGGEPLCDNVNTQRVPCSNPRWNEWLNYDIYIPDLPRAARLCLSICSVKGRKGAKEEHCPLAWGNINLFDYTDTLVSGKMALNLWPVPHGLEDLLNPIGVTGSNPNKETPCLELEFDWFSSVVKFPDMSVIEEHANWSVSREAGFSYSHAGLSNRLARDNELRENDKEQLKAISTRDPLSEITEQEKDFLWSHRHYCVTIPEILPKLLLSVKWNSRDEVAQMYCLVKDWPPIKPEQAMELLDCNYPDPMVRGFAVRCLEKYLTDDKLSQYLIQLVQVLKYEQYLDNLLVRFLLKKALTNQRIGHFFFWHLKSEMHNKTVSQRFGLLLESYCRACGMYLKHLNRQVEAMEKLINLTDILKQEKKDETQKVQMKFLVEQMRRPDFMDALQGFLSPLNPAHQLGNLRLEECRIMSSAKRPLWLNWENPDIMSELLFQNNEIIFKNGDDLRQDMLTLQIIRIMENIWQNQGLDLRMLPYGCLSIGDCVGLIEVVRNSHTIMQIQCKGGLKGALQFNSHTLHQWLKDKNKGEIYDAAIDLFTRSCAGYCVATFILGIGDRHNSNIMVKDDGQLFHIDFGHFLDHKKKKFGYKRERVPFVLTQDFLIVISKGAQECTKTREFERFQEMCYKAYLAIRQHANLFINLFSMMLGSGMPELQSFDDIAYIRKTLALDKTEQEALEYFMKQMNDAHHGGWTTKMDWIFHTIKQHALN
Chain of CYP3A4 (P08684 whole entry): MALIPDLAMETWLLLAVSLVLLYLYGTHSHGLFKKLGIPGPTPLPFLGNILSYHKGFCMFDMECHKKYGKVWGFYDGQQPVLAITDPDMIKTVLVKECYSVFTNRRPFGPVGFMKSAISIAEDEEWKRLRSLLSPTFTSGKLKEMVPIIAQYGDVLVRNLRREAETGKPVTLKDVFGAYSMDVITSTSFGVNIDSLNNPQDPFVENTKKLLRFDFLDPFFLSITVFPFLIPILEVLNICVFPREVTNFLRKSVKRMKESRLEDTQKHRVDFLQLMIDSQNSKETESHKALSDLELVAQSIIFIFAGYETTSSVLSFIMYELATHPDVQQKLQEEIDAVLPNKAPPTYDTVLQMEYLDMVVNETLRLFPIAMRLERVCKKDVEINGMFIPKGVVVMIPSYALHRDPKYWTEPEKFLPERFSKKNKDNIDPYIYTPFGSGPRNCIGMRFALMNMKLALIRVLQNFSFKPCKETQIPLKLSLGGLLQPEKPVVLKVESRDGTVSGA
Chain of CYP2C9 (P11712 whole entry): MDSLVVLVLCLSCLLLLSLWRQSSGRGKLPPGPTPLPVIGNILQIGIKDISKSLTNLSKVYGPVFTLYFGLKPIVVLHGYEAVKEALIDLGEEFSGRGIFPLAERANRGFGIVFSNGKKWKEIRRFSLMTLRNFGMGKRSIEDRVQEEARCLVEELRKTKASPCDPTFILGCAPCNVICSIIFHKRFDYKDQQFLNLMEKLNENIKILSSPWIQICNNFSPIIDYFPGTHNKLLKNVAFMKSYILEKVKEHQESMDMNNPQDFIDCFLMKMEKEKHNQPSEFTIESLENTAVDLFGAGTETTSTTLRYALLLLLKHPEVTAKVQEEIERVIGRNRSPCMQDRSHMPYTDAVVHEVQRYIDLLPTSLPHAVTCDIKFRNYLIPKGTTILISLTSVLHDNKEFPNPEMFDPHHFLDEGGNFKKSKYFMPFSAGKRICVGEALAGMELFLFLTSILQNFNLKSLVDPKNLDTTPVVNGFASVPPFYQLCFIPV
Chain of CYP2D6 (P10635 whole entry): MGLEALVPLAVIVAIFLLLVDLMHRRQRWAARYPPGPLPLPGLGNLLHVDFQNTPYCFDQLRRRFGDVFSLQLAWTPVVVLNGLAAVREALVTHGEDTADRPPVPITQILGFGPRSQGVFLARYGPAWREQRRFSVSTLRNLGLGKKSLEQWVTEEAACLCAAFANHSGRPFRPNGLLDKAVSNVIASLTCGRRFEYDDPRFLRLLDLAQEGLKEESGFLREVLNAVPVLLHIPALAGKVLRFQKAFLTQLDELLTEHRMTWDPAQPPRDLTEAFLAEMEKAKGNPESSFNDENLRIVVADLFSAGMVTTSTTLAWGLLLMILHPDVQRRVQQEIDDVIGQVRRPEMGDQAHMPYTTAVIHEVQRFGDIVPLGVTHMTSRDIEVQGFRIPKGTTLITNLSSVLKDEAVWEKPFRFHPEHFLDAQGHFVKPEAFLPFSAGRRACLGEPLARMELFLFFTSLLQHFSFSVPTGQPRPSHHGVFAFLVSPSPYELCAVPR

Ki [1] | microsomal CLint [2] | hepatocyte CLint [3] | Ki [4] | IC50 [5] | inhibition [6] | SMILES | further results
5 nM |  |  | 3000 nM | 55 nM |  | CCNC(=O)Nc1ccc(-c2nc3c(c(N4C[C@H]5CC[C@@H](C4)O5)n2)CS(=O)(=O)CC3)cc1 | 
62 nM |  |  |  | 1290 nM | 3% | CCNC(=O)Nc1ccc(-c2nc3c(c(N4C[C@@H]5C[C@H]4CO5)n2)CS(=O)(=O)C3)cc1 | 
50 nM | < 8 µL/min/mg | < 2 µL/min/1e6 cells | > 4550 nM |  |  | CCNC(=O)Nc1ccc(-c2nc3c(c(N4CCOCC4)n2)CS(=O)(=O)CC3)cc1 | 
7 nM |  |  |  | 84 nM | 18% | CCNC(=O)Nc1ccc(-c2nc3c(c(N4C[C@H]5CC[C@@H](C4)O5)n2)CS(=O)(=O)C3)cc1 | 
25 nM | < 8 µL/min/mg | < 2 µL/min/1e6 cells | 514 nM |  |  | CCNC(=O)Nc1ccc(-c2nc3c(c(N4CCOCC4)n2)CS(=O)(=O)C3)cc1 | Ratio Ki (Homo sapiens): 20

More lines, now with the values behind:

SMILES | Ki [1] | microsomal CLint [2] | hepatocyte CLint [3] | Ki [4] | IC50 [5] | inhibition [6] | further results
CCNC(=O)Nc1ccc(-c2nc3c(c(N4CCOC[C@@H]4C)n2)S(=O)(=O)CCC3)cc1 | 50 nM | 58 µL/min/mg | 28 µL/min/1e6 cells | > 4550 nM |  |  | 
CCNC(=O)Nc1ccc(-c2nc3c(c(N4CCOC[C@H]4C)n2)CS(=O)(=O)CC3)cc1 | 52 nM |  |  | > 4550 nM |  |  | 
CCNC(=O)Nc1ccc(-c2nc3c(c(N4CCOC[C@@H]4C)n2)CS(=O)(=O)CC3)cc1 | 8 nM | 8.7 µL/min/mg | < 2 µL/min/1e6 cells | > 4550 nM | 48 nM |  | half-life [7]: 1.05 h; inhibition at 3 µM (CYP2D6): ≤ 25%; inhibition at 3 µM (CYP1A2): ≤ 25%; Ratio Ki (Homo sapiens): > 500; inhibition at 3 µM (CYP3A4): ≤ 25%; inhibition at 3 µM (CYP2C9): ≤ 25%; clearance [8]: 66.2 mL/min/kg; dose excreted [9]: 5.5%; Activity (Salmonella typhimurium): Non-toxic; bioavailability [10]: 30%; IC50 [11]: 6 nM
CCNC(=O)Nc1ccc(-c2nc3c(c(N4CCOC[C@H]4C)n2)S(=O)(=O)CC3)cc1 | 120 nM | 25 µL/min/mg | 11 µL/min/1e6 cells |  |  | 7% | 
